Experimental data taken from patent publication US20060094790A1, “Use of sphingosine kinase activator as skin disease treating agent and method for treating skin diseases using the same” (priority 2004, published 2006).

How the values were obtained:
hairless mouse = assay type: in vivo; details: 1.0% in PEG:EtOH=7:3 combined with 0.05% chlobetason-17-propionate, back of hairless mouse, H & E staining
Text: To evaluate effect of the sphingosine kinase activator upon inhibition of steroid side effects, a steroid was applied to a hairless mouse. Typically, side effects caused by long-term or excessive dose of steroids include skin atrophy expressed by thinning of skin and weakening of skin functions, and a rebound phenomenon including reoccurrence of conditions caused by stopping use of steroids. It is reported that the main cause for such side effects is inhibition of fibroblast activity and a decrease in collagen production (S. Hammer et al., J. Cell. Biochem, 91, 840-851, 2004), Therefore, it is expected that the compound according to the present invention enhances collagen synthesis and differentiation of keratinocytes, and thus inhibits such side effects caused by steroids. To perform a test, a steroid, i.e. 0.05% chlobetason-17-propionate, and […]-5 according to the present invention (1.0% in PEG:EtOH=7:3) were applied to a hairless mouse and changes in the skin were observed. The treating agents were applied to the back of a hairless mouse 9 times per day and the tissue was collected. Then, the epidermis and dermis were observed by carrying out the H & E staining method (hematoxylin and eosin staining) known to one skilled in the art.

human body = details: in vivo
Experimental: (§1) Those tests were performed based on “Toxicity Test Standards for Pharmaceutical Products” disclosed by the Korea Food & Drug Administration.

sphingosine kinase = target: T1, sphingosine kinase (Mus musculus, UniProt Q8CI15); experiment: Activation of sphingosine kinase (C17-sphingosine-1-phosphate production, HPLC); assay type: cell-based; details: F9-12 cells, 24 hours, 50 μM compound, PMA 300 nM
T1 construct: host or cells: F9-12 cells
T1 sequence (Q8CI15 1-381 isoform Q8CI15-3): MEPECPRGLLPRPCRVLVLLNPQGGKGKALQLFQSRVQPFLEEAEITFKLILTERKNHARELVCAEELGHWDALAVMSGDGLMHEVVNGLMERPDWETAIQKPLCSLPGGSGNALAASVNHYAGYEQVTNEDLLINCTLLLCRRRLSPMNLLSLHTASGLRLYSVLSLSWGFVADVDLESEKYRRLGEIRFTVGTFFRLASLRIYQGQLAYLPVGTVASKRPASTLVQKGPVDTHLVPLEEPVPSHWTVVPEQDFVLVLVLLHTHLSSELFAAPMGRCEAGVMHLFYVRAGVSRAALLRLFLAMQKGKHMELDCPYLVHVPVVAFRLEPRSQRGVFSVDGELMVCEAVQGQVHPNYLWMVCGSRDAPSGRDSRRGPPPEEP
Experimental: The following test for activation of sphingosine kinase was performed to determine whether the effects of the above compounds upon intracellular calcium signal transfer as described in Example 1 were caused by activation of sphingosine kinase.
F9-12 cells were treated with 300 nM of PMA ([…]) as positive control, and 50 μM of each of K6PC4 and K6PC-5 for 24 hours and collected. Then, activity of sphingosine kinase was measured as production of C17-sphingosine-1-phosphate based on 50 μg of protein. Sphingosine-1-phospate was extracted from the collected cells by the steps of: (1) treating with trypsin-EDTA, (2) centrifugal separation at 1,500 rpm for 10 minutes, and (3) washing with PBS, followed by freeze-drying. Then, PBS was added to the freeze-dried product and the resultant product was treated with ultrasonic waves to destroy cells. Sphingosine-1-phosphate was determined by HPLC, and OPA (o-phthalaldehyde) reagent and boric acid buffer were added to the extracted sample and the mixture was reacted at room temperature for 20 minutes. For the HPLC quantitive analysis, fluorescence intensity was measured at each wavelength of 340 nm and 455 nm with a solution in 90% acetonitrile, and a ratio to the internal standard was calculated.

rabbits = details: rabbit, in vivo
Experimental: as §1

keratinocytes = experiment: Differentiation of keratinocytes (western blotting of involucrin and keratin-1); assay type: cell-based; details: 10 μM, 48 hours, FIG. 2
Experimental: In order to evaluate the effect of the above compound according to the present invention upon differentiation of keratinocytes, each of K6PC4, K6PC-5, K6PC-7 and K6PC-9 was dissolved in DMSO at a concentration of 10 μM and used as sample. Evaluation was performed by using the western blotting method. As differentiation markers, involucrin and keratine-1, which were differentiation markers of keratinocytes, were measured. Next, 48 hours after the treatment of samples, the culture solution was discarded and the cells were washed with PBS and collected by filtering. The collected cells were washed again and subjected to centrifugal separation to remove supernatant. The cells were dissolved in a solvent and subjected to centrifugal separation at 12,000 rpm for 10 minutes, thereby removing cell membranes, etc. Protein concentration was determined by the Bradford method. Proteins were separated by mini gel type SDS-PAGE (polyacrylamide gel electrohoresis) and transferred to a PVDF (polyvinylidene fluoride) membrane at 100V for 1 hour, so that gel-like proteins were subjected to blotting with a transfer membrane. Then, the membrane was colored with Ponceau S solution to determine whether transfer was accomplished or not. The membrane was blocked by using TTBS (TBS+0.1% Tween 20) solution containing 5% non-fat dried milk. In order to check the amount of involucrin as differentiation marker of keratinocytes, primary antibody involucrin (Neomarkers Co.) was diluted at a ratio of about 1/200 to 1.400, and keratin-1 (Covance Co.) was diluted at a ratio of about 1/1000. Reactions were performed overnight at 4° C. As secondary antibody, anti-mouse IgG and anti-rabbit IgG combined with horseradish peroxidase (HRP) was diluted at a ratio of 1:2000. Then, the secondary antibody was bonded to the primary antibody by making them react at room temperature for 1 hour. The membrane was washed with TTBS three times, reacted with an ECL substrate (Amersham Co.) for 1-3 minutes, and exposed to X-ray films.

guinea pigs = details: guinea pig, in vivo
Experimental: as §1

RBL-2H3 cell line = experiment: Intracellular calcium movement (fura-2 fluorescence); assay type: cell-based; details: RBL-2H3 cells, fura-2, FIGS. 1a to 1d
Experimental: First, the following experiment for calcium movement was performed in order to determine whether the above sphingosine kinase activator compounds activate sphingosine-1-phosphate, so as to cause intracellular calcium movement, which is a typical activity specific to sphingosine-1-phosphate.
The sphingosine kinase activator compounds were determined for capability of inducing intracellular calcium movement by using a RBL-2H3 cell line, which is one of the typical cell lines showing intracellular calcium movement. The cells are cultured by using an RPMI 1640 culture medium and the cells were washed simultaneously with removal of the medium. Then, 10 μM of fura-2/Am and 250 μl M of sulfinpyrazone were added thereto, followed by incubation for 30 minutes. Cell pellets were obtained by centrifugal separation and the cell pellets were dispersed in Ca^2+-free Locke's solution. The dispersion was divided into a unit of 1×10^6 cells for use in treating samples. Next, the cells were introduced into a cuvet of a fluorescence microscope, each sphingosine kinase activator compound was added thereto, and intracellular calcium movement was observed by the fluorescence microscope (RF-5310PC, Spectrofluoro photometer, SHIMADZU). When intracellular calcium ions are detected, they cause fluorescence by bonding with fura-2. Therefore, a degree of calcium movement caused by a sample was evaluated by calculating a difference between the measurement of fura-2 ([…]) bonded with calcium and that of non-bonded fura-2 ([…]).

rats = details: rat, in vivo
Experimental: as §1

Experimental for human subjects: In this example, effects of improving wrinkles were evaluated in 32 subjects (average age: 46.7). During the total period of 8 weeks, a cream containing 1% of K6PC-5 and cream containing no K6PC-5 (control) were applied around both eye rims and then instrumental evaluation was performed. A silicone replica for the eye tail part of a subject was formed, and the replica was irradiated with light at an angle. Then, a shading degree formed by wrinkles in the replica was photographed by a CCD camera, and the image was determined for a wrinkling degree by using a computer image analysis system. More particularly, a program of Skin Visiometer SV 600 available from C+K Co. (Germany) was used for determination, wherein wrinkle parameters are expressed as R1 through R5 values. R1, R2 and R3 represent deep wrinkles and R4 and R5 represent shallow wrinkles.

SMILES: CCCCCCCC(=O)C(CCCCCC)C(=O)NC(CO)CO (centres unmarked) [K6PC-5, N-(1,3-dihydroxyisopropyl)-2-hexyl-3-oxo-decanamide]
- improvement in the condition of wrinkles around the eye (human subjects; cream containing 1% of K6PC-5, 8 weeks, versus control cream, P<0.05 t-test): statistically significant improvement in the condition of wrinkles
- skin irritation or hypersensitive reaction (inspection of dermatologists) (human subjects; human, in vivo): no skin irritation or hypersensitive reaction
- inhibition of steroid side effects (skin atrophy) (hairless mouse): significant inhibition of side effects caused by steroids
- Human body application test result (human body): No irritation
- C17-SIP Production (sphingosine kinase; non-treated control 51.72): 75.59 pmol/min/mg
- increase in production of sphingosine-1-phosphate (sphingosine kinase; versus non-treated control): about 46%
- Ophthalmic mucous membrane irritation test result (rabbits): No irritation
- expression of differentiation markers (involucrin, keratin-1) (keratinocytes): expressed the differentiation markers
- Skin sensitization test result (guinea pigs): No irritation
- intracellular calcium movement (RBL-2H3 cell line): caused intracellular calcium movement
- Single dose oral toxicity test result (rats): No irritation
